Bridge positions count the residues as written; N and C are the ends. Square brackets hold non-standard residues; d marks the D form. Peptide text beside a SMILES is read from it. Hyp = O=C(O)[C@@H]1C[C@@H](O)CN1; Cit = NC(=O)NCCC[C@H](N)C(=O)O
Tests used:
hAMY3 receptor = biological target: T1, hAMY3 receptor (Homo sapiens, UniProt O60896+P30988); test: cAMP assay for in vitro receptor activation, hAMY3-R; format: cell-based; settings: cAMP assay, hAMY3 receptor; read-out: hAMY3R EC50
T1 sequence (P30988 25-474): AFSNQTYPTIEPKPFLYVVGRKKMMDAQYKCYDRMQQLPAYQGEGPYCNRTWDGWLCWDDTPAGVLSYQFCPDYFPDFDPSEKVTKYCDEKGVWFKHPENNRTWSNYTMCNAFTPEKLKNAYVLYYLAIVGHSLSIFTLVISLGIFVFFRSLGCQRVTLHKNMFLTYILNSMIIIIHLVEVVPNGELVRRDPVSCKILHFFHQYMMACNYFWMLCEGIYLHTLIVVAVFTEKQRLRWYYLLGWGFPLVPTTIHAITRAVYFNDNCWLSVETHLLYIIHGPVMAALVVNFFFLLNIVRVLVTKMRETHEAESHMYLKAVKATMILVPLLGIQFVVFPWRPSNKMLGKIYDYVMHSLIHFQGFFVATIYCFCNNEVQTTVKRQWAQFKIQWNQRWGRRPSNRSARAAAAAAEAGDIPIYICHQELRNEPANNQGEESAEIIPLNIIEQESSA
T1 sequence (O60896 24-148 partner): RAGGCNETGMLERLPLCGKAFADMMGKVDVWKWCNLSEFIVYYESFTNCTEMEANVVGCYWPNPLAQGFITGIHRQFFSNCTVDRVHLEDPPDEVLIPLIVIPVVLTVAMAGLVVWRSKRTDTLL
Procedure, shortened: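 Accumulated cAMP was detected by time-resolved FRET one hour after reagent addition. Beforehand, hAMY3-R-overexpressing monoclonal cells (2000/well, DPBS, 0.05% casein, 0.5 mM IBMX) received graded doses of compound for 30 min at room temperature; human amylin served as positive control.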

hAM1 receptor = hAM1 receptor (Homo sapiens, UniProt O60895+Q16602); test: cAMP assay for in vitro receptor activation, hAM1-R; format: cell-based; settings: cAMP assay, hAM1 receptor; read-out: hAM1R EC50
Chain of hAM1 receptor (Q16602 23-461): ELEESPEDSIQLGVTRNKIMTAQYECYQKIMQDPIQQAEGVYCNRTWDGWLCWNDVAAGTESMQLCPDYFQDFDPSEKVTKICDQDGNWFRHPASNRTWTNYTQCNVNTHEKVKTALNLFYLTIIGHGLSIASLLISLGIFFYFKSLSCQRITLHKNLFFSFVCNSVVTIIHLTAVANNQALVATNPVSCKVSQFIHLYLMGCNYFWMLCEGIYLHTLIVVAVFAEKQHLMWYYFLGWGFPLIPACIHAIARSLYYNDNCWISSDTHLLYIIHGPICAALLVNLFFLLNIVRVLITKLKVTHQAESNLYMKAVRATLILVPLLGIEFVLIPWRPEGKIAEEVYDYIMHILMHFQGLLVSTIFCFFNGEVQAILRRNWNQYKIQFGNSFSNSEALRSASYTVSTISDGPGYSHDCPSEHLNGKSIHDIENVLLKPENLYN
Chain of hAM1 receptor (O60895 43-175 partner): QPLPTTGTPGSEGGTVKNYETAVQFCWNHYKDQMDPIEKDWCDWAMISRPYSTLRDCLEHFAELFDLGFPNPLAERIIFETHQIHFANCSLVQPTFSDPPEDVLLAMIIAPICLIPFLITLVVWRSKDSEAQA
Procedure, shortened: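 Stable hAM1 cells (monoclonal) plated 8000/well; buffer DPBS, 0.05% casein, 0.5 mM IBMX; cAMP read-out.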

[1] = Physical stability of peptide analogues (Thioflavin T fibrillation); format: physicochemical; settings: maximum ThT signal normalized between hAMY maximum and buffer background; 40° C., shaking, four days; pH 7 per table title
Procedure, shortened: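 1 h in 50 mM NaOAc pH 4 / 50 mM NaPi pH 7; + ThT 4 μM final; 40 °C, 700 rpm linear shake 5 min pre-read; ex 450, em 480 nm q10 min × 4 d; LOESS smoothing; max signal normalised to hAMY max vs buffer blank.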

Structure (SMILES)	EC50 (hAMY3 receptor) [nM]	EC50 (hAM1 receptor) [nM]	Max ThT signal (%) [1] [%]
CC[C@H](C)[C@H](NC(=O)[C@H](CCC(N)=O)NC(=O)[C@H](Cc1c[nH]cn1)NC(=O)[C@H](C)NC(=O)[C@H](CC(C)C)NC(=O)[C@H](CCCNC(N)=O)NC(=O)[C@H](CCC(N)=O)NC(=O)[C@@H](NC(=O)[C@@H](NC(=O)[C@@H]1CSSC[C@H](NC(=O)CN)C(=O)N[C@@H](CCCNC(=N)N)C(=O)N[C@@H](Cc2ccccc2)C(=O)NCC(=O)N[C@@H]([C@@H](C)O)C(=O)N1)[C@@H](C)O)C(C)C)C(=O)N[C@@H](Cc1ccc(O)cc1)C(=O)N[C@@H](CCC(N)=O)C(=O)N[C@@H](Cc1ccccc1)C(=O)N[C@H](C(=O)N[C@@H](CC(=O)O)C(=O)N[C@@H](CCCCN)C(=O)N[C@@H](CC(=O)O)C(=O)N[C@@H](CCCCN)C(=O)N[C@@H](CC(=O)O)C(=O)N[C@@H](CC(N)=O)C(=O)N[C@H](C(=O)N[C@@H](C)C(=O)N1CCC[C@H]1C(=O)N[C@@H](CCCNC(=N)N)C(=O)N[C@@H](CO)C(=O)N[C@@H](CCCCN)C(=O)N[C@H](C(=O)N[C@@H](CO)C(=O)N1CCC[C@H]1C(=O)N[C@@H](CCC(N)=O)C(=O)NCC(=O)N1C[C@H](O)C[C@H]1C(N)=O)C(C)C)C(C)C)[C@@H](C)O [compound 305] (H-GCRFGTCTVQ[Cit]LAHQIYQFTDKDKDNVAPRSKVSPQG[Hyp]-NH2; disulfide 2-7)	0.085	> 5000	24.600
CC[C@H](C)[C@H](NC(=O)[C@H](CCC(N)=O)NC(=O)[C@H](CC(=O)O)NC(=O)[C@H](C)NC(=O)[C@H](CC(C)C)NC(=O)[C@H](Cc1c[nH]c2ccccc12)NC(=O)[C@H](C)NC(=O)[C@@H](NC(=O)[C@@H](NC(=O)[C@@H]1CSSC[C@H](NC(=O)[C@@H](N)CCCCN)C(=O)N[C@@H](CC(N)=O)C(=O)N[C@@H]([C@@H](C)O)C(=O)N[C@@H](CO)C(=O)N[C@@H]([C@@H](C)O)C(=O)N1)[C@@H](C)O)C(C)C)C(=O)N[C@H](C(=O)N[C@@H](CCC(N)=O)C(=O)N[C@@H](Cc1ccccc1)C(=O)N[C@@H](CO)C(=O)N[C@@H](CC(N)=O)C(=O)N[C@@H](CCCCN)C(=O)N[C@@H](CC(=O)O)C(=O)N[C@@H](CCCCN)C(=O)N[C@@H](C)C(=O)N[C@@H](CCC(N)=O)C(=O)N[C@H](C(=O)N[C@@H](CO)C(=O)N1CCC[C@H]1C(=O)N1CCC[C@H]1C(=O)N[C@H](C(=O)N[C@@H](CCC(=O)O)C(=O)N[C@H](C(=O)NCC(=O)N1CCC[C@H]1C(=O)N[C@@H](CC(N)=O)C(=O)N[C@@H](CO)C(=O)N1C[C@H](O)C[C@H]1C(N)=O)C(C)C)[C@@H](C)O)C(C)C)[C@@H](C)O [compound 306] (H-KCNTSTCTVAWLADQITQFSNKDKAQVSPPTEVGPNS[Hyp]-NH2; disulfide 2-7; N-terminus assumed)	0.003	> 5000	3.000
CC[C@H](C)[C@H](NC(=O)[C@H](CCC(N)=O)NC(=O)[C@H](CC(=O)O)NC(=O)[C@H](C)NC(=O)[C@H](CC(C)C)NC(=O)[C@H](Cc1c[nH]c2ccccc12)NC(=O)[C@H](CC(N)=O)NC(=O)[C@@H](NC(=O)[C@@H](NC(=O)[C@@H]1CSSC[C@H](NC(=O)[C@@H](N)CCCNC(=N)N)C(=O)N[C@@H](CC(N)=O)C(=O)N[C@@H](C)C(=O)N[C@@H](CO)C(=O)N[C@@H]([C@@H](C)O)C(=O)N1)[C@@H](C)O)C(C)C)C(=O)N[C@H](C(=O)N[C@@H](CCC(N)=O)C(=O)N[C@@H](Cc1ccccc1)C(=O)N[C@@H](CO)C(=O)N[C@@H](CC(N)=O)C(=O)N[C@@H](CCCCN)C(=O)N[C@@H](CC(=O)O)C(=O)N[C@@H](CCCCN)C(=O)N[C@@H](C)C(=O)N[C@@H](CCC(N)=O)C(=O)N[C@H](C(=O)N[C@@H](CO)C(=O)N1CCC[C@H]1C(=O)N1CCC[C@H]1C(=O)N[C@H](C(=O)N[C@@H](CCC(=O)O)C(=O)N[C@H](C(=O)NCC(=O)N1CCC[C@H]1C(=O)N[C@@H](CC(N)=O)C(=O)N[C@@H](CO)C(=O)N1C[C@H](O)C[C@H]1C(N)=O)C(C)C)[C@@H](C)O)C(C)C)[C@@H](C)O [compound 307] (H-RCNASTCTVNWLADQITQFSNKDKAQVSPPTEVGPNS[Hyp]-NH2; disulfide 2-7; N-terminus assumed)	0.01	> 5000	11.200
CC[C@H](C)[C@H](NC(=O)[C@H](C)NC(=O)[C@H](Cc1c[nH]cn1)NC(=O)[C@H](C)NC(=O)[C@H](CC(C)C)NC(=O)[C@H](Cc1c[nH]c2ccccc12)NC(=O)[C@H](CCC(N)=O)NC(=O)[C@@H](NC(=O)[C@@H](NC(=O)[C@@H]1CSSC[C@H](NC(=O)[C@@H](N)CCCCN)C(=O)N[C@@H](CC(N)=O)C(=O)N[C@@H]([C@@H](C)O)C(=O)N[C@@H](C)C(=O)N[C@@H]([C@@H](C)O)C(=O)N1)[C@@H](C)O)C(C)C)C(=O)N[C@@H](Cc1ccc(O)cc1)C(=O)N[C@@H](CCC(N)=O)C(=O)N[C@@H](Cc1ccccc1)C(=O)N[C@H](C(=O)N[C@@H](CC(=O)O)C(=O)N[C@@H](CCCCN)C(=O)N[C@@H](CC(=O)O)C(=O)N[C@@H](CCCCN)C(=O)N[C@@H](CC(=O)O)C(=O)N[C@@H](CC(N)=O)C(=O)N[C@H](C(=O)N[C@@H](C)C(=O)N1CCC[C@H]1C(=O)N1CCC[C@H]1C(=O)N[C@H](C(=O)N[C@@H](CC(N)=O)C(=O)N[C@H](C(=O)NCC(=O)N[C@@H](CO)C(=O)N[C@@H](CC(N)=O)C(=O)NCC(=O)N1C[C@H](O)C[C@H]1C(N)=O)C(C)C)[C@@H](C)O)C(C)C)[C@@H](C)O [compound 308] (H-KCNTATCTVQWLAHAIYQFTDKDKDNVAPPTNVGSNG[Hyp]-NH2; disulfide 2-7; N-terminus assumed)	0.014	> 5000	14.500
CC[C@H](C)[C@H](NC(=O)[C@H](CCC(N)=O)NC(=O)[C@H](Cc1c[nH]cn1)NC(=O)[C@H](C)NC(=O)[C@H](CC(C)C)NC(=O)[C@H](Cc1c[nH]c2ccccc12)NC(=O)[C@H](CCC(N)=O)NC(=O)[C@@H](NC(=O)[C@@H](NC(=O)[C@@H]1CSSC[C@H](NC(=O)[C@@H](N)CCCCN)C(=O)N[C@@H](CC(N)=O)C(=O)N[C@@H]([C@@H](C)O)C(=O)N[C@@H](C)C(=O)N[C@@H]([C@@H](C)O)C(=O)N1)[C@@H](C)O)C(C)C)C(=O)N[C@@H](C)C(=O)N[C@@H](CCC(N)=O)C(=O)N[C@@H](Cc1ccccc1)C(=O)N[C@H](C(=O)N[C@@H](CC(=O)O)C(=O)N[C@@H](CCCCN)C(=O)N[C@@H](CC(=O)O)C(=O)N[C@@H](CCCCN)C(=O)N[C@@H](CC(=O)O)C(=O)N[C@@H](CC(N)=O)C(=O)N[C@H](C(=O)N[C@@H](C)C(=O)N1CCC[C@H]1C(=O)N1CCC[C@H]1C(=O)N[C@H](C(=O)N[C@@H](CC(N)=O)C(=O)N[C@H](C(=O)NCC(=O)N[C@@H](CO)C(=O)N[C@@H](CC(N)=O)C(=O)NCC(=O)N1C[C@H](O)C[C@H]1C(N)=O)C(C)C)[C@@H](C)O)C(C)C)[C@@H](C)O [compound 309] (H-KCNTATCTVQWLAHQIAQFTDKDKDNVAPPTNVGSNG[Hyp]-NH2; disulfide 2-7; N-terminus assumed)	0.025	> 5000	4.250
CC[C@H](C)[C@H](NC(=O)[C@H](CCC(N)=O)NC(=O)[C@H](CC(=O)O)NC(=O)[C@H](C)NC(=O)[C@H](CC(C)C)NC(=O)[C@H](Cc1c[nH]c2ccccc12)NC(=O)[C@H](C)NC(=O)[C@@H](NC(=O)[C@@H](NC(=O)[C@@H]1CSSC[C@H](NC(=O)[C@@H](N)CCCCN)C(=O)N[C@@H](CC(N)=O)C(=O)N[C@@H]([C@@H](C)O)C(=O)N[C@@H](CO)C(=O)N[C@@H]([C@@H](C)O)C(=O)N1)[C@@H](C)O)C(C)C)C(=O)N[C@H](C(=O)N[C@@H](CCC(N)=O)C(=O)N[C@@H](Cc1ccccc1)C(=O)N[C@@H](CO)C(=O)N[C@@H](CC(=O)O)C(=O)N[C@@H](CCCCN)C(=O)N[C@@H](CC(=O)O)C(=O)N[C@@H](CCCCN)C(=O)N[C@@H](C)C(=O)N[C@@H](CC(N)=O)C(=O)N[C@H](C(=O)N[C@@H](CO)C(=O)N1CCC[C@H]1C(=O)N1CCC[C@H]1C(=O)N[C@H](C(=O)N[C@@H](CCC(=O)O)C(=O)N[C@H](C(=O)NCC(=O)N1CCC[C@H]1C(=O)N[C@@H](CC(N)=O)C(=O)N[C@@H](CO)C(=O)N1C[C@H](O)C[C@H]1C(N)=O)C(C)C)[C@@H](C)O)C(C)C)[C@@H](C)O [compound 310] (H-KCNTSTCTVAWLADQITQFSDKDKANVSPPTEVGPNS[Hyp]-NH2; disulfide 2-7)	0.003	> 5000	3.500

— US12139520B2 (priority 2020, dated 2024)
